In ChEMBL document CHEMBL4346705, “(±)-trans-Dihydronarciclasine and (±)-trans-dihydrolycoricidine analogues modified in their ring A: Evaluation of their anticancer activity and a SAR study” (2019):

How the values were obtained:
Assay type in all cases: functional
SK-OV-3 = experiment: Antiproliferative activity against human SKOV3 cells assessed as cell viability at 10^-5 M incubated for 48 hrs by sulforhodamine B assay relative to control; settings: SK-OV-3, 48 h, read-out: Activity
COLO 205 = experiment: Antiproliferative activity against human COLO205 cells assessed as cell viability at 10^-5 M incubated for 48 hrs by sulforhodamine B assay relative to control; settings: COLO 205, 48 h, read-out: Activity
HCT-15 = experiment: Antiproliferative activity against human HCT15 cells assessed as cell viability at 10^-5 M incubated for 48 hrs by sulforhodamine B assay relative to control; settings: HCT-15, 48 h, read-out: Activity
SF-268 = experiment: Antiproliferative activity against human SF268 cells assessed as cell viability at 10^-5 M incubated for 48 hrs by sulforhodamine B assay relative to control; settings: SF-268, 48 h, read-out: Activity
MDA-MB-468 = experiment: Antiproliferative activity against human MDA-MB-468 cells assessed as cell viability at 10^-5 M incubated for 48 hrs by sulforhodamine B assay relative to control; settings: MDA-MB-468, 48 h, read-out: Activity
BT-549 = experiment: Antiproliferative activity against human BT549 cells assessed as cell viability at 10^-5 M incubated for 48 hrs by sulforhodamine B assay relative to control; settings: BT-549, 48 h, read-out: Activity
A549 = experiment: Antiproliferative activity against human A549 cells assessed as cell viability at 10^-5 M incubated for 48 hrs by sulforhodamine B assay relative to control; settings: A549, 48 h, read-out: Activity
MOLT-4 = experiment: Antiproliferative activity against human MOLT4 cells assessed as cell viability at 10^-5 M incubated for 48 hrs by sulforhodamine B assay relative to control; settings: MOLT-4, 48 h, read-out: Activity
HOP-62 = experiment: Antiproliferative activity against human HOP62 cells assessed as cell viability at 10^-5 M incubated for 48 hrs by sulforhodamine B assay relative to control; settings: HOP-62, 48 h, read-out: Activity
SW-620 = experiment: Antiproliferative activity against human SW620 cells assessed as cell viability at 10^-5 M incubated for 48 hrs by sulforhodamine B assay relative to control; settings: SW-620, 48 h, read-out: Activity
NCI-H460 = experiment: Antiproliferative activity against human NCI-H460 cells assessed as cell viability at 10^-5 M incubated for 48 hrs by sulforhodamine B assay relative to control; settings: NCI-H460, 48 h, read-out: Activity
SNB-75 = experiment: Antiproliferative activity against human SNB75 cells assessed as cell viability at 10^-5 M incubated for 48 hrs by sulforhodamine B assay relative to control; settings: SNB-75, 48 h, read-out: Activity
NCI/ADR-RES = experiment: Antiproliferative activity against human NCI-ADR-RES cells assessed as cell viability at 10^-5 M incubated for 48 hrs by sulforhodamine B assay relative to control; settings: read-out: Activity
UACC-62 = experiment: Antiproliferative activity against human UACC62 cells assessed as cell viability at 10^-5 M incubated for 48 hrs by sulforhodamine B assay relative to control; settings: UACC-62, 48 h, read-out: Activity
RXF 393 = experiment: Antiproliferative activity against human RXF393 cells assessed as cell viability at 10^-5 M incubated for 48 hrs by sulforhodamine B assay relative to control; settings: RXF 393, 48 h, read-out: Activity
Malme-3M = experiment: Antiproliferative activity against human MALME-3M cells assessed as cell viability at 10^-5 M incubated for 48 hrs by sulforhodamine B assay relative to control; settings: read-out: Activity
HCC 2998 = experiment: Antiproliferative activity against human HCC2998 cells assessed as cell viability at 10^-5 M incubated for 48 hrs by sulforhodamine B assay relative to control; settings: HCC 2998, 48 h, read-out: Activity
DU-145 = experiment: Antiproliferative activity against human DU145 cells assessed as cell viability at 10^-5 M incubated for 48 hrs by sulforhodamine B assay relative to control; settings: DU-145, 48 h, read-out: Activity
PC-3 = experiment: Antiproliferative activity against human PC3 cells assessed as cell viability at 10^-5 M incubated for 48 hrs by sulforhodamine B assay relative to control; settings: PC-3, 48 h, read-out: Activity
SNB-19 = experiment: Antiproliferative activity against human SNB19 cells assessed as cell viability at 10^-5 M incubated for 48 hrs by sulforhodamine B assay relative to control; settings: SNB-19, 48 h, read-out: Activity
OVCAR-5 = experiment: Antiproliferative activity against human OVCAR5 cells assessed as cell viability at 10^-5 M incubated for 48 hrs by sulforhodamine B assay relative to control; settings: OVCAR-5, 48 h, read-out: Activity
A498 = experiment: Antiproliferative activity against human A498 cells assessed as cell viability at 10^-5 M incubated for 48 hrs by sulforhodamine B assay relative to control; settings: A498, 48 h, read-out: Activity
OVCAR-3 = experiment: Antiproliferative activity against human OVCAR3 cells assessed as cell viability at 10^-5 M incubated for 48 hrs by sulforhodamine B assay relative to control; settings: OVCAR-3, 48 h, read-out: Activity
MDA-MB-435 = experiment: Antiproliferative activity against human MDA-MB-435 cells assessed as cell viability at 10^-5 M incubated for 48 hrs by sulforhodamine B assay relative to control; settings: MDA-MB-435, 48 h, read-out: Activity
HL-60(TB) = experiment: Antiproliferative activity against human HL-60(TB) cells assessed as cell viability at 10^-5 M incubated for 48 hrs by sulforhodamine B assay relative to control; settings: HL-60, 48 h, read-out: Activity
KM12 = experiment: Antiproliferative activity against human KM12 cells assessed as cell viability at 10^-5 M incubated for 48 hrs by sulforhodamine B assay relative to control; settings: KM12, 48 h, read-out: Activity
SK-MEL-28 = experiment: Antiproliferative activity against human SK-MEL-28 cells assessed as cell viability at 10^-5 M incubated for 48 hrs by sulforhodamine B assay relative to control; settings: SK-MEL-28, 48 h, read-out: Activity
M14 = experiment: Antiproliferative activity against human M14 cells assessed as cell viability at 10^-5 M incubated for 48 hrs by sulforhodamine B assay relative to control; settings: M14, 48 h, read-out: Activity

Compound | viability at 10 µM (SK-OV-3) | viability at 10 µM (COLO 205) | viability at 10 µM (HCT-15) | viability at 10 µM (SF-268) | viability at 10 µM (MDA-MB-468) | viability at 10 µM (BT-549) | viability at 10 µM (A549) | viability at 10 µM (MOLT-4) | viability at 10 µM (HOP-62) | viability at 10 µM (SW-620) | viability at 10 µM (NCI-H460) | viability at 10 µM (SNB-75) | viability at 10 µM (NCI/ADR-RES) | viability at 10 µM (UACC-62) | viability at 10 µM (RXF 393) | viability at 10 µM (Malme-3M) | viability at 10 µM (HCC 2998) | viability at 10 µM (DU-145) | viability at 10 µM (PC-3) | viability at 10 µM (SNB-19) | other results
CCOc1c(OC)cc2c(c1OCC)C(=O)NC1C2CC(O)C(O)C1O (racemic) | 105% | 113% | 102% | 91.3% | 98.1% | 103% | 94.2% | 80.9% | 106% | 106% | 107% | 92.4% | 109% | 95.7% | 104% | 103% | 104% | 110% | 93.3% | 103% | viability at 10 µM (OVCAR-5): 108%; viability at 10 µM (A498): 110%; viability at 10 µM (OVCAR-3): 103%; viability at 10 µM (MDA-MB-435): 105%; viability at 10 µM (HL-60(TB)): 86.6%; viability at 10 µM (KM12): 102%; viability at 10 µM (SK-MEL-28): 108%; viability at 10 µM (M14): 99.1%
CCOc1cc2c(c(O)c1OCC)C(=O)NC1C2CC(O)C(O)C1O (racemic) | 98.6% | 110% | 99% | 96.4% | 94.8% | 100% | 92.8% | 103% | 101% | 112% | 113% | 93.4% | 107% | 93% | 104% | 102% | 101% | 105% | 100% | 96% | viability at 10 µM (OVCAR-5): 104%; viability at 10 µM (A498): 98.7%; viability at 10 µM (OVCAR-3): 104%; viability at 10 µM (MDA-MB-435): 109%; viability at 10 µM (HL-60(TB)): 102%; viability at 10 µM (KM12): 106%; viability at 10 µM (SK-MEL-28): 105%; viability at 10 µM (M14): 100%
CCOc1c(OC)cc2c(c1O)C(=O)NC1C2CC(O)C(O)C1O (racemic) | 98.1% | 115% | 102% | 102% | 94.9% | 99.6% | 94.7% | 92.4% | 98.6% | 107% | 112% | 93.5% | 110% | 93.1% | 109% | 102% | 102% | 109% | 100% | 99% | viability at 10 µM (OVCAR-5): 98.7%; viability at 10 µM (A498): 99.5%; viability at 10 µM (OVCAR-3): 102%; viability at 10 µM (MDA-MB-435): 108%; viability at 10 µM (HL-60(TB)): 100%; viability at 10 µM (KM12): 104%; viability at 10 µM (SK-MEL-28): 105%; viability at 10 µM (M14): 105%
CCOc1cc2c(c(OC)c1OCC)C(=O)NC1C2CC(O)C(O)C1O (racemic) | 103% | 116% | 99.5% | 95.4% | 96.2% | 101% | 84.3% | 99.3% | 104% | 109% | 102% | 98.8% | 105% | 97.3% | 105% | 111% | 107% | 106% | 96.9% | 97.7% | viability at 10 µM (OVCAR-5): 109%; viability at 10 µM (A498): 102%; viability at 10 µM (OVCAR-3): 102%; viability at 10 µM (MDA-MB-435): 107%; viability at 10 µM (HL-60(TB)): 86.8%; viability at 10 µM (KM12): 103%; viability at 10 µM (SK-MEL-28): 105%; viability at 10 µM (M14): 107%
CCOc1cc2c(c(OCC)c1OCC)C(=O)NC1C2CC(O)C(O)C1O (racemic) | 105% | 115% | 104% | 99.5% | 107% | 108% | 95.8% | 99.2% | 102% | 107% | 109% | 93% | 108% | 101% | 110% | 112% | 107% | 113% | 89.4% | 104% | viability at 10 µM (OVCAR-5): 104%; viability at 10 µM (A498): 102%; viability at 10 µM (OVCAR-3): 104%; viability at 10 µM (MDA-MB-435): 104%; viability at 10 µM (HL-60(TB)): 96.1%; viability at 10 µM (KM12): 103%; viability at 10 µM (SK-MEL-28): 107%; viability at 10 µM (M14): 103%
